Here are results for 3 substances from publication PMC8776730 (Nature Communications, 2022).

Data set [1] can be described thus: MIA PaCa-2 cells / Miapaca-2 cell lysis. To be noted: up to 2 h.
A short description of data set [2]: MIA PaCa-2 cells (supplement contents: Miapaca-2 cell lysis). As to conditions: up to 2 h.
Data set [3] relates to Recombinant Human Fibroblast Activation Protein-α (FAP-α). Briefly: FAP-α in buffer: 50 mM Tris, 1 M NaCl, 1 mg/mL, BSA, pH 7.5. To be noted: up to 12 h.
Data set [4] is described as follows: Critical assembly concentration (CAC) by pyrene fluorescence probe. The data set is classed as physicochemical. To be noted: for I1/I3: pyrene fluorescence. An excerpt: In order to study the molecular design and their assembly behavior, we modular designed and synthesized seven molecules (Table 1), which respectively were BIVA probe: M1 (mPEG-GPAKLVFFGC(IR783)GRGD); the non- FAP-α tailoring molecule: M2 (mPEG-AGGKLVFFGC(IR783)GRGD) scrambled response tailoring motif of Gly-Pro-Ala with Ala-Gly-Gly; the non-labeling molecule of M1: M3 (mPEG-GPAKLVFFGCGRGD) removed IR783 labeling; FAP-α tailoring residue of M1: R-M1 (AKLVFFGC(IR783)GRGD); the non-targeting molecule: M4 (mPEG-GPAKLVFFGC(IR783)GDTG) scrambled targeting tailoring motif of Arg-Gly-Asp with Asp-Thr-Gly; the non-labeling molecule of M2: M5 (mPEG-AGGKLVFFGCGRGD) removed IR783 labeling; FAP-α tailoring residue of M3: R-M3 (AKLVFFGCGRGD). All the synthesized procedure (Supplementary Fig. 1) and characterizations of these seven molecules can be found in SI (Supplementary Figs. 2–8). […] Without IR783 labeling, molecules of M3 and M5 decreased the CAC value in solution relative to M1 and M2, which could be attributed to the proximity of the steric hindrance of hydrophilic IR783 to the self-assembly motif (Supplementary Fig. 9). […] The CAC was quantitatively calculated by fluorescence probe of pyrene.

A short description of data set [5]: Secondary structure proportions from CD spectra. It counts as physicochemical. To be noted: calculated by Reed's Reference based on CD spectra; DI water. The source says:
To further evaluate the assembled structures, the corresponding circular dichroism (CD), Fourier transform infrared (FTIR) spectroscopy, and wide-angle X-ray scattering (WAXS) spectroscopy were applied. […] The FITR spectra of M1 and M3 in Fig. 3b observed the intermolecular interactions. The peaks at 1629 cm^−1, 1675 cm^−1, and 1698 cm^–1 of M3 indicated anti-parallel β-sheet structure (represent by green arrow heads), peaks at 1648 cm^−1 and 1663 cm^−1 indicated parallel beta sheet structure (represent by blue arrow heads), the existence of 1654 cm^−1 indicate α-Helix structure in M1 which verified the results deduced by CD in Fig. 3a[29],[30]. […] As a homologous sequence with amyloid β-protein (Aβ), the self-assembly motif with peptide sequence of KLVFFGCG had similar aggregation kinetics to (Aβ)42 peptide, which occurred via dynamic growth from oligomers to amyloid fibrils. The aggregation started from the freshly isolated monomers of R-M1, and precipitates were separated in 1 min and 1 h, respectively. […] After analyzed the CD spectra of M1, M3, and R-M1 (Fig. 3e), it can be clearly seen that the main secondary conformation of M1 was Random, the M3 was hybrid of Helix and Beta, and the R-M1 was Beta (Supplementary Table 1). All the results confirmed the conclusion from FTIR spectra. […] The dynamic growth procedure was like the 8-anilino-1-naphthalenesulfonic acid (ANS) stained curve (Supplementary Fig. 12). As known, ANS was sensitive to hydrophobic interaction. When R-M1 were in the initial oligomer, the fluorescence intensity of ANS increased due to the enhanced hydrophobicity. When the molecules were elongated and stacked in higher ordered nanofibrils, the blue shift of ANS in the β-sheet structures reduced the fluorescence. The molecular packing mode of well-ordered fibrils of R-M1 in Fig. 3g observed a weak reflection at 4.9 Å as laminates space and a strong broad reflection at 10.3 Å as sheet space, which was illustrated in the inserted figure. The fibril morphology was characterized by transmission electron microscopy (TEM) imaging (Fig. 3f). The statistical calculation of the fiber diameter in TEM images was 5.0 ± 0.4 nm (Supplementary Fig. 13), which was corresponded to the theoretical calculated two molecules length of R-M1. We assumed that the nanofibers were assembled by twisted R-M1 molecules centered on self-assembly motif.
The secondary structures of M1, M3 and R-M1 were verified by CD spectroscopy (JASCO Corporation, JC-1500) at room temperature with a cell path length of 1 cm. M1, […] and R-M1 were diluted to 100 μM with deionized water at 25 °C and allowed to stand for 12 h for complete assembly. Detail parameter setting were CD scale:200 mdeg/1.0Dod, measure range: 260~190 nm, scanning speed: 500 nm/min, bandwidth: 1.00 nm, and data pitch: 0.5 nm. All spectra were the average of three measurements.
Supplementary Table 1∣ Secondary structure proportions ofM1, M3 and R-M1 calculated by Reed’s Reference based on […]

Data set [6] in a line: Nanofiber dynamic growth, ThT staining. It counts as physicochemical. To be noted: aggregation curve with ThT trace.
Data set [7] relates to MIA PaCa-2 cells. The data set is described as follows: Cellular imaging (CLSM) of FITC-labelled molecules. The data set is classed as cell-based. As to the method:
To further confirm this hypothesis, the M1 and M2 were equally labeled by FITC for cell imaging (Fig. 5b). To simulate the dynamic physiological condition, the cell culture medium was replaced every 15 min. After 1 h of incubation with M1 and M2 at the same molecule molar concentration, there occurred significant differences between the two molecules (Fig. 5c). […] The huge difference can be explained by the fact that the secondary assembly rate broke the balance between the targeted ligand and receptor, and thus tended to a stable assembly interaction. The retention efficiency depended on the assembly rate constant Ka. Meanwhile, the rapid dynamic assembly of BIVA probe in situ around the cell membrane, and contributed to the efficient formation and retention of nanofibers on the cell profile. When the incubation time was delayed up to 2 h, some components could be endocytosed into the cells, but most of them were found on the membranes (Supplementary Fig. 18). […] Then, the isolated cells were collected and lysed, the extracted cell membrane fragments were stained with ThT. […] In order to verify the influence of the addition of the targeting module of the probe molecules, we explored the imaging of R-M1 and M4 on cells.
(§1) Fig. 5 The BIVA effect with enhanced targeting to pancreatic tumor cell for boundaries imaging. a Illustration of BIVA effect: active targeting and assembly/aggregate induced retention (AIR) effect. b Chemical structure of FITC labeling. c 2D and 3D confocal images of M2 with active targeting property and M1 with BIVA effect on MIA PaCa-2 cells after incubation for 1 h. d The distribution of M1 on MIA PaCa-2 cell. e ThT staining of the lysed cell membrane of MIA PaCa-2. f, Illustration of migration inhibition after treated by BIVA probe. g The image of the migrated cells after treatment of PBS (blank), M2, M4, and M1. Scale bar: 100 μm. h The pie diagram of quantitative statistical calculation of the migrated cells (blue) in different groups. The blank control was set as 100% migrated cells.
MIA PaCa-2 cells were digested with trypsin, counted with cell counting plate, diluted to 1 × 10^4 with DMEM medium, and 1 mL to 1 cm diameter confocal microscope dish was taken. The cells were incubated in […] atmosphere for 24 h. The medium containing M1 and M2 (50 μM) was replaced and incubated with the cells for 2 h. The cells were washed with PBS for 3 times. CLSM (Zeiss 710) was used to image cells under 40 × objective, excitation = 488 nm, and emission >520 nm.
Supplementary Fig. 19 ∣ CLSM images of Miapaca-2 cells treated with different molecules or M1 under different conditions. […]

The subject of data set [8] is MIA PaCa-2 cells. The data set is described as follows: Transwell migration assay. As to conditions: for migrated cells (Fig S20): MIA PaCa-2 cells. It counts as cell-based. Here is the method: as §1
In order to further understand the contribution of the active targeting and AIR effect during locating of the cells, the cell transwell experiment was used to quantitively evaluate interference of the cell migration based on M1, M2, and M4 (Fig. 5f). As expected, untreated cells were easy to migrate to the lower chamber, while the cells treated with active targeting molecule M2 and assembled molecule M4, the migration of cell were reduced. Under the same molar concentration, the M1 treatment group had the most inference on cell migration (Fig. 5g). […] Based on those results, we speculate M1 can be more enriched in the tumor site and form fibers through assembly to inhibit tumor cell migration compared to M2 and M4 which have no ability to target and adhere on the cell membrane.
Transwell migration assay occurred in chemotaxis chambers containing 24 wells. […] Bottom chambers contained DMEM medium containing 10% FBS. After 24 h of treatment with M1, M2, and M4 (150 μM), we fixed cells using 4% paraformaldehyde and stained with 0.25% crystal violet solution. The stained cells were counted using a microscope.
Supplementary Fig. 20∣ The quantitative results of the migrated cells after treatment of PBS (blank), M2, […] and
M1 (Fig 5g). The mean of results of fiveparallel experiments is shown and data were expressed as mean ± SD (n=5).
pM1 = 5.85E-06, pM2 = 5.94E-05, pM4 = 3.16 E-04, Statisticalanalysis: one-way ANOVA followed by post hoc Tukey’s
(§2) (1 picture or pasted object on this page, not shown here)

The subject of data set [9] is MIA PaCa-2 cells. The data set is described as follows: Cytotoxicity, CCK-8 assay. It counts as cell-based. As to conditions: CCK-8, 24 h, at high concentration of 300 μM. As to the method: The cytotoxicity of M1 and M2 was evaluated using CCK-8 assay in MIA PaCa-2 cells. Cells were seeded into 96-well plates at a density of 5 × 10^4 cells per well and placed in an incubator for 14 h. Subsequently, the sample was diluted into a series of different concentrations (0, 50, 100, 150, 200, 250, 300, and 350 μM) and incubated with cells for 24 h. After that, 10 μL of CCK-8 solution was added to each well and incubated for 2 h. The absorbance of blank wells (Ab), sample wells (As) and control wells (Ac) were measured with a microplate reader at a test wavelength of 450 nm and a reference wavelength of 690 nm. The cell viability rate (%) is equal to (As -Ab) / (Ac -Ab) ×100%. All experiments were repeated in triplicate.
Supplementary Fig. 21∣ Cellviability assay of Miapaca-2 cells treated with a series concentration of M1 and M2 for 24 h.
Tested by Cell Counting Kit-8 (Beyotime, C0039) The mean of results of six parallel experiments isshown and data were
expressed as mean ± SD (n=6).
as §2
Background: Tetrazolium assays rely on reduction of a dye to a coloured formazan, in cell work by metabolically active cells.

In another data set the test system is MIA PaCa-2 tumor. As to conditions: mouse, in vivo, 16 mg/kg. As to the method:
In order to reduce systemic error and individual difference, we constructed the subcutaneous pancreatic cancer model in mice for quantitatively calculating of the metabolic data.
All the animal experiments were performed in accordance with the Guide for the Care and Use of Laboratory Animals approved by the Committee for Animal Research of the National Center for Nanoscience and Technology. The MIA PaCa-2 tumor-bearing mice were intravenously injected with ICG, M1 and M2 (16 mg/kg), respectively for in vivo fluorescence imaging with in vivo spectrum imaging system. Finally, mice were sacrificed to collect the major organs and tumors for ex vivo fluorescence imaging.

For data set [10] the following is noted: mouse, in vivo, iv, 16 mg/kg.

As for mPEG-GPAKLVFFGC(IR783)GRGD, the fragment found entry in data set [1] is “PEG residues”; in data set [2], “R-M1”. For the same substance, the cleaved bond result in data set [3] is “Pro-Ala”.
With “AKLVFFGC(IR783)GRGD [R-M1, FAP-α tailoring residue of M1]”, the “Critical assembly concentration (CAC)” value in data set [4] (aqueous solution, analyzed based on pyrene fluorescence) is 37.2 µM. Also, the I1/I3 turned out to be 1.233 in data set [4] (conc 1.56 μM); 1.275 in data set [4] (conc 12.5 μM); 1.246 in data set [4] (conc 25 μM); 1.302 in data set [4] (conc 100 μM); 1.43 in data set [4] (conc 200 μM). The Secondary structure proportion: Beta in data set [5] was 72%. In [5], the Secondary structure proportion: Helix is 0.5%. Besides, the Secondary structure proportion: Random in data set [5] is 0%. The Secondary structure proportion: Turn in [5] is 27.5%. The final plain phase in [6] was greater than 30 min. The “state in the medium (solubility)” value in the data set with MIA PaCa-2 cells [7] (co-incubation with MIA PaCa-2 cells) was “insoluble suspended mixture”.
As for mPEG-AGGKLVFFGC(IR783)GRGD [M2], in the data set on MIA PaCa-2 cells [7] (FITC-labelled molecules, MIA PaCa-2 cells, 1 h incubation, CLSM), the “fluorescence signal on the cell membrane” value is “significantly reduced the fluorescence signal”. The “emigrate (migrated cells relative to blank)” value in the data set with MIA PaCa-2 cells [8] (MIA PaCa-2, 150 μM, 24 h, blank control = 1) was found to be 0.6397. For the same substance, the “migrated cells (Fig S20)” value in the data set on MIA PaCa-2 cells [8] (averge of groups 1-3) was determined as 587; in the data set with MIA PaCa-2 cells [8] (group 1) it was 547; with MIA PaCa-2 cells [8] (group 2) it was 625; with MIA PaCa-2 cells [8] (group 3), 589. Also, the cytotoxicity entry in the data set with MIA PaCa-2 cells [9] is listed as “no obvious cytotoxicity”. Further, the “reduction of tumor fluorescence signal between 12 h and 120 h” value with MIA PaCa-2 tumor is recorded as “disappeared completely”. Further, the “time of distribution and accumulation in the tumor area” value with MIA PaCa-2 tumor (iv) lay within 0.1 to 24 h. Also, the “blood circulation half-life (t1/2)” value in data set [10] is 1.7 ± 0.067 h.
